Where two headings read alike, the source gives them in different places.
How the values were obtained:
[1] = system: dietetic-medicamentous hyperlipemia of male rats; assay: Action on the dietetic-medicamentous hyperlipemia of male rats; format: in vivo; settings: Rattus norvegicus, po, 192 h, 100 mg/kg/day p.o., 8 days, male rats on cholesterol diet
From the text: All the animals were fed with a diet food containing 2% of cholesterol, 2% of sodium cholate, 0.3% of methyl-thiouracil, 20% of coco fat and 44% of cane sugar. The serum lipid concentration of the animals treated with the compounds of the invention was compared to that of an untreated control group on the same diet, which diet causes the serum cholesteral concentration to rise within 1 week to about 10 times the initial value, that of the serum triglycerides to 3 times and that of the phospho-lipids in the serum to 4 times the initial value. The lipid phosphorus was determined according to the method of Messrs. Boehringer Mannheim W. Germany. At the same time as the diet was offered, the compounds of the invention were administered once a day to groups of rats, each containing 10 animals, over a period of 8 days by means of an esophageal sound. The change in percentage in the serum lipid concentration as compared to the control group (diet without active substance) is indicated in Table 2.

in vivo = settings: mouse, po
[2] = system: hypertriglyceridemia induced by carbohydrates in male rats; assay: Action on the hypertriglyceridemia induced by carbohydrates (fructose) in male rats; format: in vivo; settings: Rattus norvegicus, 72 h, 3-day oral pre-treatment, vs untreated control, read-out: Change in percentage of hypertriglyceridemia induced by carbohydrates
normolipemic rats = assay: Reduction of serum lipid values in normolipemic rats (8 days oral); format: in vivo, rat; settings: 8 doses, male rats; for serum cholesterol, change in percentage (A: referred to the initial value) / serum triglyceride, change in percentage (A: referred to the initial value): column A; for serum cholesterol, change in percentage (B: referred to the untreated control group) / serum triglyceride, change in percentage (B: referred to the untreated control group): column B
Experimental: 1. Male rats having a normal serum lipid content were treated for eight days with different daily doses mentioned in Table 1. The values given in that Table stand for a change in the serum concentrations of certain lipid classes. The doses administered per os by means of an esophageal sound were 100, 30 and 10 mg/kg/day. Generally, prior to and after the treatment, blood samples were taken and the concentration of cholesterol in the serum was determined according to the method of Lauber and Richterich and that of triglycerides according to the method of Eggstein and Kreutz. In the examples of the following Table 1, the changes in the serum lipid values due to the treatment with the substances of the invention are defined as follows:
a. The changes in percent in the final value of the treated group, referred to the initial value of the treated group, the initial value being 100 percent, and
b. the change in the final value of the treated group, referred to the final value of an accompanying untreated control group, the untreated control group's value being defined as 100 percent. Thus, the value given in columns A is the change in percentage referred to the initial value, whereas the value given in columns B is the change in percentage of the treated group, referred to the untreated control group.

[3] = system: rats that had been fed fructose doses; assay: Hypoglycemic activity: lowering of the blood sugar level in rats fed fructose doses; format: in vivo, rat; settings: 100 mg/kg once a day over 3 days, 24 hours after last administration, vs placebo control group
Experimental: The hypoglycemic activity of some bis(4-hydroxy-phenyl) alkanoic acid derivatives of formulae I and II could be established by administering once a day, over 3 days, 100 mg of the active compound per kg of test animal to rats that had been fed fructose doses and by taking blood samples 24 hours after the last administration in order to determine the blood sugar level by means of an autoanalyzer.
The lowering of the blood sugar content indicated in following Table 4 refers to a control group treated with placebos (blank doses).

mice = settings: Table 3
[4] = read-out: serum cholesterol, change in percentage as compared to the control group
[5] = read-out: serum lipid phosphorus, change in percentage as compared to the control group
[6] = read-out: serum triglyceride, change in percentage as compared to the control group

SMILES | change in vivo at 100 mg/kg [1, 4] [%] | change in vivo at 100 mg/kg [1, 5] [%] | change in vivo at 100 mg/kg [1, 6] [%] | LD50 (in vivo) [mg/kg] | change in vivo at 30 mg/kg [2] [%] | change in vivo at 100 mg/kg [2] [%] | serum cholesterol, change in percentage (A: referred to the initial value) (normolipemic rats; 10 mg/kg/day p.o.) [%] | serum cholesterol, change in percentage (B: referred to the untreated control group) (normolipemic rats; 10 mg/kg/day p.o.) [%] | serum triglyceride, change in percentage (B: referred to the untreated control group) (normolipemic rats; 10 mg/kg/day p.o.) [%] | serum cholesterol, change in percentage (A: referred to the initial value) (normolipemic rats; 30 mg/kg/day p.o.) [%] | serum triglyceride, change in percentage (A: referred to the initial value) (normolipemic rats; 30 mg/kg/day p.o.) [%] | serum cholesterol, change in percentage (B: referred to the untreated control group) (normolipemic rats; 30 mg/kg/day p.o.) [%] | serum triglyceride, change in percentage (B: referred to the untreated control group) (normolipemic rats; 30 mg/kg/day p.o.) [%] | serum cholesterol, change in percentage (A: referred to the initial value) (normolipemic rats; 100 mg/kg/day p.o.) [%] | serum triglyceride, change in percentage (A: referred to the initial value) (normolipemic rats; 100 mg/kg/day p.o.) [%] | serum cholesterol, change in percentage (B: referred to the untreated control group) (normolipemic rats; 100 mg/kg/day p.o.) [%] | serum triglyceride, change in percentage (B: referred to the untreated control group) (normolipemic rats; 100 mg/kg/day p.o.) [%] | lowering of the blood sugar level in per cent [3] [per cent] | LD50 mice p.o. (mice) [mg/kg]
CC(C)(C)c1cc(C(C(=O)O)c2cc(C(C)(C)C)c(O)c(C(C)(C)C)c2)cc(C(C)(C)C)c1O [Example 3, Bis(4'-hydroxy-3',5'-di-tert.butyl-phenyl)ethanoic acid] | -23 | -26 | -44 | 6000 to 8000 | -36 | -37 | -24 | -21 | -29 | -32 | -39 | -22 | -46 | -61 | -70 | -52 | -60 | -15 | 6000 to 8000
CCCCOC(=O)CC(C)(c1ccc(O)c(C(C)(C)C)c1)c1ccc(O)c(C(C)(C)C)c1 [Example 7, 3,3-bis(4'-hydroxy-3'-tert.-butyl-phenyl)butanoic acid butyl ester] | -30 | -30 | -34 | > 8000 | -19 | -35 | – | – | – | – | – | – | – | -29 | -53 | -26 | -23 | -24 | > 8000

From patent US4007282A, “Lowering lipid and sugar levels in the blood with a bis(4-hydroxyphenyl)alkanoic acid or ester thereof” (Hoechst Aktiengesellschaft, priority 1972, dated 1977)
